Assay results: patent US20130315843A1, “COMPOSITION FOR REDUCTION OF TRPA1 AND TRPV1 SENSATIONS” (priority 2012, published 2013)
Where two headings read alike, the source gives them in different places.

Molecular target: human TRPA1 (Homo sapiens, UniProt O75762)
Experiment: FLIPR Ca2+ assay, reduction of hydrogen peroxide activation of TRPA1
Type: cell-based
Design: expressed in transfected cells
Conditions: for inhibition at 400 µM / inhibition at 100 µM: read-out: % Reduction of Hydrogen Peroxide TRPA1 Activation
Method: After centrifugation, a pellet of cells was formed in the bottom of the tube separating them from the supernatant solution.
The pelleted cells were re-suspended in 10 ml assay buffer and 90 μl aliquots (˜50,000 cells) per well delivered to a 96-well assay plate containing 10 μl of test compounds ([…]) or buffer control and incubated at room temperature for 30 minutes.

[1] = 100 μM antagonist vs 500 μM hydrogen peroxide
[2] = 400 μM antagonist vs 500 μM hydrogen peroxide
[3] = antagonist 400 μM against 200 μM hydrogen peroxide
[4] = compound 100 μM against 200 μM hydrogen peroxide, Sets 1-4

Sequence of human TRPA1 (O75762 whole entry): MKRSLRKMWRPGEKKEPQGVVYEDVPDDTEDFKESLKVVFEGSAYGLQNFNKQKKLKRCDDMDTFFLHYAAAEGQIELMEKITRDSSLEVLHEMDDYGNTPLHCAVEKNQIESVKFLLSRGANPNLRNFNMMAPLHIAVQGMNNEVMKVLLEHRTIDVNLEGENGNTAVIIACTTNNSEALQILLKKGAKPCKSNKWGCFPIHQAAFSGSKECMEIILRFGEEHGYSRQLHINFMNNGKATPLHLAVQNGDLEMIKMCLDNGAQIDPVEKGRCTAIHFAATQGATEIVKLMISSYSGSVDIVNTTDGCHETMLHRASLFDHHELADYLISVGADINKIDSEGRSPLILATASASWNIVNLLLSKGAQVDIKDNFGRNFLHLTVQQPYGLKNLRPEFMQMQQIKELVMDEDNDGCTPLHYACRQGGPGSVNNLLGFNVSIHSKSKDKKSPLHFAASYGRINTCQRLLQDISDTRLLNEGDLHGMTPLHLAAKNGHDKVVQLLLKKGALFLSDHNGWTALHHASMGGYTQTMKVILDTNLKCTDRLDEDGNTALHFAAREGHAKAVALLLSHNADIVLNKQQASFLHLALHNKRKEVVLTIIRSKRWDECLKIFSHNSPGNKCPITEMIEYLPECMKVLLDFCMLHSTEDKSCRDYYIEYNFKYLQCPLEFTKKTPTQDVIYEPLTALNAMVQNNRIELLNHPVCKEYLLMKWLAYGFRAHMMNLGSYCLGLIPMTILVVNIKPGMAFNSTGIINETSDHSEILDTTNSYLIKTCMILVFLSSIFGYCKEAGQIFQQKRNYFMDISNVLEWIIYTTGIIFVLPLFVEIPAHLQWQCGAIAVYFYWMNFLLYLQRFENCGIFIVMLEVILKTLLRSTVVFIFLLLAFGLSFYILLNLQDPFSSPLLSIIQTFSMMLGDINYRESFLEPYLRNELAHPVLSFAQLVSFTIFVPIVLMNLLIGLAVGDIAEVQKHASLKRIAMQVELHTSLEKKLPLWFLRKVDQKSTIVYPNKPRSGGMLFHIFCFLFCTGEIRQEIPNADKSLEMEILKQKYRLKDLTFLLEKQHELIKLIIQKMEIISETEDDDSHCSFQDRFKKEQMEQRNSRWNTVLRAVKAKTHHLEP

Row | Structure (SMILES) | Block of hydrogen peroxide activation of TRPA1 [1] | Average Ca++ Counts [4] | inhibition at 100 µM [4] | other results
1 | CC(=O)OCC(C)(C)Cc1ccccc1 | BLOCK ONLY H2O2/TRPA1 |  |  | 
2 | C[C@H]1CC[C@]2(O1)C(C)(C)CCC[C@]2(C)O |  |  |  | Block of hydrogen peroxide activation of TRPA1 [2]: BLOCK ONLY H2O2/TRPA1
3 | CCCC1CC(=O)C=C(C)C1 (centres unmarked) |  |  |  | Block of hydrogen peroxide activation of TRPA1 [2]: BLOCK ONLY H2O2/TRPA1
4 | CC(C)C=C(C=O)c1ccccc1 (mixture of isomers) [4-Methyl-2-phenyl-2 Pentenal] |  |  |  | inhibition at 400 µM [3]: 54%
5 | CC1=CC(=O)[C@@H]2C[C@H]1C2(C)C (racemic) [dl-verbenone] |  |  |  | % Reduction of Hydrogen Peroxide TRPA1 Activation: 54.1%; Average Ca++ Counts: 3231.0 Counts; Block of hydrogen peroxide activation of TRPA1: BLOCK ONLY H2O2/TRPA1
6 | CCCCCCO [1-hexanol] | BLOCK ONLY H2O2/TRPA1 | 5664.5 Counts | 46.5% | 
7 | CCCCCCCCCCCO [1-undecanol] | BLOCK ONLY H2O2/TRPA1 | 3396.0 Counts | 51.8% | 
8 | c1ccc(CCCC2CCCO2)cc1 (centres unmarked) [2-(3-Phenylpropyl) tetrahydrofuran] |  |  |  | Block of hydrogen peroxide activation of TRPA1 [2]: BLOCK ONLY H2O2/TRPA1; inhibition at 400 µM [3]: 74%
9 | CCCc1ccc(O)c(OC)c1 [2-Methoxy-4-propyl-phenol] |  |  |  | Block of hydrogen peroxide activation of TRPA1: BLOCK ONLY H2O2/TRPA1; inhibition at 400 µM: 43%
10 | CCC(C)COC(=O)C(C)CC (centres unmarked) [2-Methyl butyl 2-methylbutyrate] | BLOCK ONLY H2O2/TRPA1 |  |  | 
11 | CCCCC(CC)CO (centres unmarked) [2-ethyl-1-hexanol] | BLOCK ONLY H2O2/TRPA1 | 4960.5 Counts | 53.2% | 
12 | CC1=C(O)C(=O)CC1.O [2-hydroxy-3-methyl-2-cyclopenten-1-one hydrate] |  |  |  | Average Ca++ Counts: 4172.0 Counts; inhibition at 100 µM: 60.6%
13 | CCC(C)CS (centres unmarked) [2-methyl-1-butanethiol] | BLOCK ONLY H2O2/TRPA1 | 3208.0 Counts | 54.5% | 
14 | CCC(C)COC(=O)C(C)CC (centres unmarked) [2-methylbutyl 2-methylbutyrate] |  | 2685.5 Counts | 61.9% | 
15 | CC=C(C=O)c1ccccc1 [2-phenyl-2-butenal] | BLOCK ONLY H2O2/TRPA1 | 3809.0 Counts | 56.3% | 
16 | CCC(=O)c1nccs1 [2-propionylthiazole] | BLOCK ONLY H2O2/TRPA1 | 4875.0 Counts | 54% | 
17 | CC1CC(O)CC(C)(C)C1 (centres unmarked) [3,3,5-Trimethylcyclohexanol] |  |  |  | Block of hydrogen peroxide activation of TRPA1 [2]: BLOCK ONLY H2O2/TRPA1; inhibition at 400 µM [3]: 72%
18 | CC(C)CCCC(C)CCO (centres unmarked) [3,7-dimethyl-1-octanol, 95%, 3,7-dimethyl-1-octanol] |  | 5168.0 Counts | 51.2% | 
19 | CCCCCCCC1CC(C)OC1=O (centres unmarked) [3-Heptyldihydro-5-methyl-2(3H)-furanone] |  |  |  | Block of hydrogen peroxide activation of TRPA1 [2]: BLOCK ONLY H2O2/TRPA1; inhibition at 400 µM [3]: 59%
20 | CCCC(CCOC(C)=O)SC(C)=O (centres unmarked) [3-acetylsulfanylhexyl acetate] |  |  |  | Block of hydrogen peroxide activation of TRPA1 [2]: BLOCK ONLY H2O2/TRPA1; inhibition at 400 µM [3]: 58%
21 | CC(=O)CCc1ccc2c(c1)OCO2 [4-benzo[1,3]dioxol-5-yl-butan-2-one] |  |  |  | Average Ca++ Counts: 5431.5 Counts; Block of hydrogen peroxide activation of TRPA1: BLOCK ONLY H2O2/TRPA1; inhibition at 100 µM: 48.7%
22 | CSCCC(C)=O [4-methylthio-2-butanone] |  | 3322.5 Counts | 43.5% | 
23 | CC(=O)c1ccc(C)cc1 [4′-methylacetophenone] | BLOCK ONLY H2O2/TRPA1 | 3244.5 Counts | 53.9% | 
24 | CC(C)CCCC(=O)O [5-methylhexanoic acid] | BLOCK ONLY H2O2/TRPA1 | 4747.0 Counts | 55.2% | 

More lines, main results first:

Row | Block of hydrogen peroxide activation of TRPA1 [1] | Average Ca++ Counts [4] | inhibition at 100 µM [4] | Structure (SMILES) | other results
25 | BLOCK ONLY H2O2/TRPA1 | 3228.5 Counts | 54.2% | C=CC(CCCCC)OC(C)=O (centres unmarked) [1-octen-3-yl acetate] | 
26 | BLOCK ONLY H2O2/TRPA1 | 4610.5 Counts | 56.5% | CSCSCSC [2,4,6-trithiaheptane] | 
27 | BLOCK ONLY H2O2/TRPA1 | 5208.0 Counts | 50.8% | Cc1ccc(C)c(O)c1 [2,5-dimethylphenol] | 
28 | BLOCK ONLY H2O2/TRPA1 |  |  | CCCCCCC1OCC(C)O1 (centres unmarked) [2-Hexyl-4-methyl-1,3-dioxolane] | 
29 | BLOCK ONLY H2O2/TRPA1 | 2937.0 Counts | 58.3% | CC(=O)c1ccc(C)o1 [2-acetyl-5-methylfuran] | 
30 |  | 3376.0 Counts | 52.1% | CCCCCCC1OCC(C)O1 (centres unmarked) [2-hexyl-4-methyl-1,3-dioxolan] | 
31 | BLOCK ONLY H2O2/TRPA1 | 5040.0 Counts | 52.4% | CCC=C(C)C(=O)O [2-methyl-2-pentenoic acid] | 
32 | BLOCK ONLY H2O2/TRPA1 | 3197.0 Counts | 54.6% | CCOc1nccnc1C [2-methyl-3-ethoxypyrazine] | 
33 | BLOCK ONLY H2O2/TRPA1 | 4994.0 Counts | 52.9% | CCCCC(=O)C(C)C [2-methyl-3-heptanone] | 
34 | BLOCK ONLY H2O2/TRPA1 | 3064.5 Counts | 56.5% | CCCCCCCC(C)O (centres unmarked) [2-nonanol] | 
35 | BLOCK ONLY H2O2/TRPA1 | 3049.0 Counts | 56.7% | CCCCCCCCCC(C)O (centres unmarked) [2-undecanol] | 
36 | BLOCK ONLY H2O2/TRPA1 |  |  | CC(C)CCCC(C)CCO (centres unmarked) [3,7-Dimethyl-1-octanol] | 
37 | BLOCK ONLY H2O2/TRPA1 | 2981.0 Counts | 57.7% | CC(=O)c1cccnc1 [3-acetylpyridine, 98%, 3-acetylpyridine] | 
38 | BLOCK ONLY H2O2/TRPA1 | 3381.5 Counts | 52% | CCCC(=O)CC [3-hexanone] | 
39 | BLOCK ONLY H2O2/TRPA1 | 3284.5 Counts | 53.4% | O=C(O)c1cccc(O)c1 [3-hydroxybenzoic acid] | 
40 | BLOCK ONLY H2O2/TRPA1 | 1255.5 Counts | 82.2% | CCC(S)C(C)=O (centres unmarked) [3-mercapto-2-pentanone] | 
41 | BLOCK ONLY H2O2/TRPA1 | 3246.5 Counts | 53.9% | CC1CCC(=O)C1=O (centres unmarked) [3-methyl-1,2-cyclopentanedione] | 
42 |  | 3424.5 Counts | 51.4% | O=Cc1ccc(O)cc1 [4-hydroxybenzaldehyde] | 
43 | BLOCK ONLY H2O2/TRPA1 | 3357.5 Counts | 52.3% | CCCCCC(=O)CCCCC [6-undecanone] | 
